Reference: US12655101B2, “Small molecules with antibacterial activity” (NEW MEXICO TECH UNIVERSITY RESEARCH PARK CORPORATION, priority 2021, dated 2026)
Converted amounts (≈) assume the structure as drawn. Read-outs that look alike come from different tables or passages of the source.

Assays:
MRSA ATCC BAA-44 = assay: MIC on MRSA ATCC BAA-44; assay type: cell-based, S. aureus; details: for MIC: Staphylococcus aureus
Experimental: MRSA BAA-44: MRSA ATCC BAA-44 was grown from a glycerol stock by placing a small volume of cells onto a Mueller-Hinton agar plate (MHA). The MHA plate was incubated overnight at 37° C. A single colony was used to inoculate Mueller-Hinton broth (MHB) to obtain a bacterial broth suspension. The MHB broth suspension was grown at 37° C. on a rotary shaking incubator (100 rpm) for 12 hours. The bacterial cell concentration was adjusted to ˜5×10^5 colony forming units per milliliter (CFU/mL) in MHB−/+10, 20, or 40% FBS using optical density (OD) at 595 nm. 500 μL aliquots of the adjusted bacterial cell suspension were placed into borosilicate glass tubes. The cell suspensions were treated with 100 μM compound of interest and serially diluted two-fold. The culture tubes were incubated for 18 hours at 37° C. Efficacy was either assessed visually or by adding 10% v/v MTT (5 mg/mL stock) after the 18 hour incubation period, where the cell suspensions were subsequently incubated for 10 minutes to allow the MTT reagent to carry out the colorimetric reaction.

[1] = test system: A. baumannii ATCC BAA-1797; assay: MIC on A. baumannii ATCC BAA-1797; assay type: cell-based; details: Acinetobacter baumannii
How it was run: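 Cells adjusted to ~5×10^5 CFU/mL in MHB or MHB with 10%, 20% or 40% FBS, treated with two-fold serial compound dilutions in glass tubes and incubated 18 hours at 37° C. Growth read visually or by MTT (10% v/v, 10 min) with OD at 595 nm.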

HeLa cells [2] = assay: HeLa cell toxicity IC50 (MTT); assay type: cell-based; details: Homo sapiens, 10% FBS
Experimental: HeLa cells: HeLa cells were trypsinized and counted in number of cells/mL using a hemocytometer. Cells were then plated at 4×10^3 HeLa cells/100 μL in tissue culture-treated 96-well plates in DMEM+1% penicillin/streptomycin (P/S)+10% FBS. HeLa cells were treated with 100 μM of a compound of interest and serially diluted two-fold. Samples were also prepared with no treatment, 1% DMSO, and 100 μM PAO. The cells were incubated for 48 hours at 37° C. in a humidified incubator with 5% CO2. 10% v/v MTT reagent (5 mg/mL stock) was added to each sample, and the samples were incubated for 2 hours before removing the supernatant and solubilizing the samples in 100 μL DMSO. OD readings were obtained at 595 nm. IC50 values were reported.

[3] = test system: A. baumannii ATCC BAA-1797; assay: Colony counts of A. baumannii ATCC BAA-1797 treated with 4xMIC for 16 hours; assay type: cell-based; details: for kill of A. baumannii ATCC BAA-1797: 4xMIC (24 μM Compound 25, 24 μM Compound 26, 100 μM Compound 27, 48 μM Compound 14, 100 μM Compound 15)
A. baumannii ATCC 15151 [4] = assay: ATP decrease (luciferase); assay type: cell-based; details: 1xMIC and 2xMIC; 25 minutes
A. baumannii ATCC 1515 = assay: Membrane depolarization detected by DiOC2(3); assay type: cell-based; details: 1xMIC; for cell membrane depolarization: 20 μM CCCP, 25 minutes; for cell membrane depolarization over time: 10, 20, 30, and 50 minutes
A. baumannii ATCC 15151 [5] = assay: microbe, parasite or virus in culture; assay type: cell-based; details: for change of MIC from Day 0 to Day 30 / development of resistance: 30 days; for MIC: Acinetobacter baumannii; for Evolution of resistance?: Table 7
Experimental: A. baumannii ATCC 15151 was grown from a glycerol stock by placing a small volume of cells onto a MHA plate. The MHA plate was incubated overnight at 37° C. A single colony was subsequently used to inoculate MHB to obtain a bacterial broth suspension. The MHB broth suspension was grown at 37° C. on a rotary shaking incubator (100 rpm) for 12 hours. The bacterial cell concentration was adjusted to ˜5×10^5 CFU/mL in MHB or MHB using OD at 595 nm. […] (PAO) and the negative control was non-treated cells. All treatments were performed in triplicate. The plate was incubated for 20 hours at 37° C. in a Tecan plate reader, where the cells were shaken every hour and an OD reading was taken at 600 nm. […] These cells were again plated in a 96-well plate and incubated as before. This was performed a total of 30 days.

A. baumannii = assay: Synergy with PME (Table 7); assay type: cell-based
HeLa cells [6] = assay: HeLa cell toxicity IC50 (MTT); assay type: cell-based; details: Homo sapiens
[7] = 18 h, read-out: MIC in the presence of 40% FBS, MRSA ATCC BAA-44, 40% FBS
[8] = MRSA ATCC BAA-44, absence of serum, read-out: MIC in the absence of serum
[9] = MRSA ATCC BAA-44, serum not stated, read-out: MIC
[10] = ATCC 1797 / ATCC BAA-1797, 0% FBS, read-out: MIC (μM) in MDR A. baumannii ATCC 1797 0% FBS
[11] = ATCC 1797 / ATCC BAA-1797, 10% FBS, read-out: MIC (μM) in MDR A. baumannii ATCC 1797 10% FBS
[12] = ATCC 1797 / ATCC BAA-1797, read-out: MIC (μM) in MDR A. baumannii ATCC 1797 40% FBS, 40% FBS
[13] = ATCCBAA1797, 18 h, read-out: MIC in the presence of 40% FBS, A. baumannii ATCC BAA-1797, 40% FBS
[14] = ATCCBAA1797, Table 7, 10% FBS, read-out: MIC in 10% FBS
[15] = ATCCBAA1797, Table 7, no serum stated, read-out: MIC
[16] = ATCCBAA1797, read-out: MIC in 40% FBS (μM), Table 7, 40% FBS
[17] = HeLa, Table 7, read-out: IC50 on HeLa in 10% FBS
[18] = HeLa cells, read-out: IC50 10% FBS
[19] = ATCC15151, 0 h, read-out: Starting MIC Day 0, A. baumannii ATCC 15151, Day 0
[20] = ATCC15151, read-out: Final MIC Day 30, A. baumannii ATCC 15151, Day 30
[21] = HeLa, read-out: IC50 on HeLa in 40% FBS, Table 7
[22] = read-out: IC50 40% FBS, HeLa cells
[23] = ATCCBAA1797, A. baumannii ATCC BAA-1797, absence of serum, read-out: MIC in the absence of serum
[24] = no serum (note in the cell), read-out: MIC (μM) in MRSA BAA-44

Row | Structure (SMILES) | MIC (MRSA ATCC BAA-44; [9]) | MIC [1, 10] | MIC [1, 11] | MIC [1, 12] | MIC [1, 13] | MIC [1, 14] | MIC [1, 15] | MIC [1, 16] | IC50 (HeLa cells [2]; [17]) | IC50 (HeLa cells [2]; [18]) | Kill at 4X MIC at 16 hours [3] | kill of A. baumannii ATCC BAA-1797 [3] | ATP decrease (A. baumannii ATCC 15151 [4]) | cell membrane depolarization (A. baumannii ATCC 1515) | development of resistance (A. baumannii ATCC 15151 [5]) | Evolution of resistance? (A. baumannii ATCC 15151 [5]) | Synergize with PME? (A. baumannii) | IC50 (HeLa cells [6]; [21]) | IC50 (HeLa cells [6]; [22]) | MIC [1, 23] | also measured
1 | Nc1cccc2[nH]cc(/C=N/Nc3ccc(Cl)cc3)c12 [Compound 14, (E)-3-((2-(4-chlorophenyl)hydrazineylidene)methyl)-1H-indol-4-amine] | 50 to 100 µM (≈ 14.2 to 28.5 µg/mL) | 6 µM (≈ 1.71 µg/mL) | > 100 µM | 50 µM (≈ 14.2 µg/mL) | 50 µM | > 100 µM | 6 µM (≈ 1.71 µg/mL) | 50 µM (≈ 14.2 µg/mL) | 36.7 ± 3.8 µM | 36.7 ± 3.8 µM | 5-logs | ~5 orders of magnitude | caused a decrease in ATP | depolarized the cell membrane | significant resistance | Yes; >6-fold | Yes, at 4 μM | 183 µM | 183 µM | – | MIC (MRSA ATCC BAA-44; [7]): 100 µM; MIC (MRSA ATCC BAA-44; [8]): 50 µM (≈ 14.2 µg/mL); toxicity to MRSA BAA-44 (MRSA ATCC BAA-44; absence of serum): toxic; MIC ([1]; ATCCBAA1797, read-out: MIC in the absence of serum): 12.5 µM (≈ 3.56 µg/mL); MIC ([1]; ATCCBAA1797, read-out: MIC in the presence of 40% human serum, A. baumannii ATCC BAA-1797, 40% human serum): > 100 µM; change of MIC from Day 0 to Day 30 (A. baumannii ATCC 15151 [5]): 8 fold; MIC (A. baumannii ATCC 15151 [5]; [19]): 12.5 µM (≈ 3.56 µg/mL); MIC (A. baumannii ATCC 15151 [5]; [20]): ≥ 100 µM
2 | Clc1ccc(N/N=C/c2c[nH]c3ccc(Br)cc23)cc1 [Compound 15, (E)-5-bromo-3-((2-(4-chlorophenyl)hydrazineylidene)methyl)-1H-indole] | – | 12.5 µM (≈ 4.36 µg/mL) | > 100 µM | 50 µM (≈ 17.4 µg/mL) | 100 µM | > 100 µM | 12.5 µM (≈ 4.36 µg/mL) | > 100 µM | 20.9 ± 1.5 µM | 20.9 ± 1.5 µM | 6-logs | ~5 orders of magnitude | caused a decrease in ATP | – | – | Yes; >4-fold | – | 67.4 µM | 67.4 µM | 6 µM (≈ 2.09 µg/mL) | MIC (MRSA ATCC BAA-44; [7]): > 100 µM; MIC (MRSA ATCC BAA-44; [8]): 50 µM (≈ 17.4 µg/mL); cell membrane depolarization over time (A. baumannii ATCC 1515): caused the most depolarization
3 | Brc1ccc(N/N=C/c2c[nH]c3cccc(OCc4ccccc4)c23)cc1.Cl [Compound 25, (E)-2-((4-(benzyloxy)-1H-indol-3-yl)methylene)-1-(4-bromophenyl)hydrazin-1-ium chloride] | 25 µM | 6 µM | > 100 µM | 50 µM | < 50 µM | > 100 µM | 6 µM | 50 µM | 30.4 ± 3.3 µM | 30.4 ± 3.3 µM | 5-logs | ~5 orders of magnitude | caused a decrease in ATP | depolarized the cell membrane | had not developed resistance | No | Yes, at 1 μM | 101 µM | 101 µM | 6 µM | MIC (MRSA ATCC BAA-44; [24]): 50 µM; cell membrane depolarization over time (A. baumannii ATCC 1515): depolarized the membrane the least; MIC (A. baumannii ATCC 15151 [5]; [19]): 6 µM; MIC (A. baumannii ATCC 15151 [5]; [20]): 6 µM
4 | Cl.Clc1ccc(N/N=C/c2c[nH]c3cccc(OCc4ccccc4)c23)cc1 [Compound 26, (E)-2-((4-(benzyloxy)-1H-indol-3-yl)methylene)-1-(4-chlorophenyl)hydrazin-1-ium] | 25 µM | 6 µM | > 100 µM | 100 µM | 50 µM | > 100 µM | 6 µM | 100 µM | 37.3 ± 1.8 µM | 37.3 ± 1.8 µM | 5-logs | ~5 orders of magnitude | caused a decrease in ATP | depolarized the cell membrane | slight resistance | Yes; 2-fold | Yes, at 1 μM | 58.2 µM | 58.2 µM | 5 µM | MIC (MRSA ATCC BAA-44; [24]): 50 µM; MIC ([1]; ATCCBAA1797, A. baumannii ATCC BAA-1797, 10% FBS, read-out: MIC in the presence of 10% FBS): > 100 µM; change of MIC from Day 0 to Day 30 (A. baumannii ATCC 15151 [5]): 2 fold; MIC (A. baumannii ATCC 15151 [5]; [19]): 6 µM; MIC (A. baumannii ATCC 15151 [5]; [20]): 12 µM
5 | Cl.Fc1ccc(N/N=C/c2c[nH]c3cccc(OCc4ccccc4)c23)cc1 [Compound 27, (E)-2-((4-(benzyloxy)-1H-indol-3-yl)methylene)-1-(4-fluorophenyl)hydrazin-1-ium] | 100 µM | 12.5 µM | > 100 µM | 50 µM | 25 µM | > 100 µM | 12.5 µM | 50 µM | 25.8 ± 5.2 µM | 25.8 ± 5.2 µM | 5-logs | ~5 orders of magnitude | caused a decrease in ATP | – | – | Yes; 4-fold | Yes, at 6 μM | 69.7 µM | 69.7 µM | 5 µM | MIC (MRSA ATCC BAA-44; [24]): 100 µM; cell membrane depolarization over time (A. baumannii ATCC 1515): caused the most depolarization
